According to patent US7053189B2 (Oregon Health & Sciences University, priority 1990, dated 2006):
Where two headings read alike, the source gives them in different places.

How the values were obtained:
human D2 (long) = target: T1, human D2 (long) (Homo sapiens, UniProt P14416); test: D2 dissociation constants, human D2 receptor expressed in GH(4)ZR(7) cells; format: binding
T1 construct: expressed in transfected cells; host or cells: GH(4)ZR(7)

[1] = target: T2, human D4 dopamine receptor (Homo sapiens, UniProt P21917, DEL271-302/N396T/P18R); test: [3H]spiperone binding to membranes of COS-7 cells transfected with human D4 receptor construct
T2 sequence (P21917 with tags, fused parts or gaps P18R/DEL271-302/N396T): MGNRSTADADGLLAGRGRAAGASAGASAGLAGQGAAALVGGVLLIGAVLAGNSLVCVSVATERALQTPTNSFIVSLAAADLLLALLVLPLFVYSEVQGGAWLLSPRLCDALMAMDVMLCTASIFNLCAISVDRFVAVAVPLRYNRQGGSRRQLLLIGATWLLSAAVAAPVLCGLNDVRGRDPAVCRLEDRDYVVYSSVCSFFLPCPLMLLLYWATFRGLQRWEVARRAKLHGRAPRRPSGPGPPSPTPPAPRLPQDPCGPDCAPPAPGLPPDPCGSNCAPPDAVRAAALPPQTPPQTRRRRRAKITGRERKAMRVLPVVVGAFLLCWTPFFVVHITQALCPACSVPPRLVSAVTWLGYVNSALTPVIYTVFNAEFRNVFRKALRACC

[2] = target: D2 in pig anterior pituitary homogenates (Sus scrofa, UniProt A0ACM8QMZ9); format: binding; conditions: for Ki: read-out: D2Ki
[3] = target: T2, human D4 dopamine receptor; test: biochemical
[4] = target: T2, human D4 dopamine receptor
[5] = T = Ki in pig anterior pituitary homogenates, no unit in table

D2 in pig anterior pituitary homogenates, sequence (A0ACM8QMZ9 1-443): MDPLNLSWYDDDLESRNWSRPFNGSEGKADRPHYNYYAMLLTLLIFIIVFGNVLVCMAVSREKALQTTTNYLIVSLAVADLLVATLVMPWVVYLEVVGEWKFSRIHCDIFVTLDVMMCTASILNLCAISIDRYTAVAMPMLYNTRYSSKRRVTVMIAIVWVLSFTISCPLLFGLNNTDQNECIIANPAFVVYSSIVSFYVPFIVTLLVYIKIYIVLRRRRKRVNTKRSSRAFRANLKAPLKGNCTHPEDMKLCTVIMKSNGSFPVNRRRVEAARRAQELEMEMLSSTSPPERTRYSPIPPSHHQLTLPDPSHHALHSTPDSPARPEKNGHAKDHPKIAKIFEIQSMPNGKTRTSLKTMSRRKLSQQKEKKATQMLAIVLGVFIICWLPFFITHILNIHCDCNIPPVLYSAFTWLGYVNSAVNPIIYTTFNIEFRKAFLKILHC
T1 sequence (P14416 whole entry): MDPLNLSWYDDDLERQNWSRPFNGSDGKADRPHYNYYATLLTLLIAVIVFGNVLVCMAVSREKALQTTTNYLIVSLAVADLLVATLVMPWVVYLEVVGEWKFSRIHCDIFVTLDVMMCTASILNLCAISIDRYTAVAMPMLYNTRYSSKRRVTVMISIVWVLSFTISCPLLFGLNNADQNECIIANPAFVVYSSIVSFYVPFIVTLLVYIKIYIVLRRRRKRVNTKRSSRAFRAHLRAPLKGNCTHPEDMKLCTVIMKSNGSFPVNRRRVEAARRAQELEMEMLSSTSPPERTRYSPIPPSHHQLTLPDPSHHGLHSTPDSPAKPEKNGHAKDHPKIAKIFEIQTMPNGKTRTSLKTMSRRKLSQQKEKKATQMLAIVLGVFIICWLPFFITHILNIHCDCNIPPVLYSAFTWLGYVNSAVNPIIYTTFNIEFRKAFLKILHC

Compound	Ki [3] [nM]	Ki [2, 5] [nM]	further results
CC(C)C[C@H]1C(=O)N2CCC[C@H]2[C@]2(O)O[C@](NC(=O)[C@@H]3C=C4c5cccc6[nH]c(Br)c(c56)C[C@H]4N(C)C3)(C(C)C)C(=O)N12 [Bromocriptine]			Ki (human D2 (long)): 14 nM; Ki [1]: 128 nM
NC[C@H](O)c1ccc(O)c(O)c1 [(−) Noradrenaline]			Ki [2]: ~6000 nM
CCN1CCC[C@H]1CNC(=O)c1c(O)c(Cl)cc(Cl)c1OC [Raclopride]	253		
CN1CCc2cc(Cl)c(O)cc2[C@@H](c2ccccc2)C1 [SCH23390]	1960		
Fencidopam		2.8	Ki [4]: 420 nM
CCCN1CCc2cccc3c2[C@H]1Cc1ccc(O)c(O)c1-3 [NPA]		0.4	Ki [4]: 5.5 nM
O=C(c1ccc(F)cc1)C1CCN(CCn2c(=O)[nH]c3ccccc3c2=O)CC1 [Ketanserin]	147		
CN1CCN(CCCN2c3ccccc3Sc3ccc(S(=O)(=O)N(C)C)cc32)CC1 [Thioproperazine]	53		
CCCN(CCc1cccs1)[C@H]1CCc2c(O)cccc2C1 [N-0437]		0.7	Ki [4]: 93 nM
NCCc1c[nH]c2ccc(O)cc12 [Serotonin]	~8000		
CSc1ccc2c(c1)N(CCC1CCCCN1C)c1ccccc1S2 (centres unmarked) [Thioridazine]	12		
CNc1cc(OC)c(C(=O)NC2CCN(Cc3ccccc3)C2C)cc1Cl (centres unmarked) [YM-09151-2]		0.06	
O=c1[nH]c2ccccc2n1C1CCN(CCCC(c2ccc(F)cc2)c2ccc(F)cc2)CC1 [Pimozide]			Ki [1]: 25 nM
CCCN1CCC[C@@H]2Cc3n[nH]cc3C[C@H]21 [Quinpirole(−)]		4.8	
Oc1cc2c(cc1O)C(c1ccccc1)CNCC2 (centres unmarked) [SKF-38393]			Ki [1]: 1600 nM
CCCN1CCO[C@@H]2c3cc(O)ccc3CC[C@H]21 [PHNO-(+)]		1.2	Ki [4]: 42 nM
OCCN1CCN(CCCN2c3ccccc3Sc3ccc(C(F)(F)F)cc32)CC1 [Fluphenazine]	42		
CN1CCN(C2Cc3ccccc3Sc3ccc(Cl)cc32)CC1 (centres unmarked) [Octoclothepin-R]			Ki [2]: 13.5 nM
CC(C)C[C@H]1C(=O)N2CCC[C@H]2[C@]2(O)O[C@](NC(=O)[C@@H]3C=C4c5cccc6[nH]cc(c56)C[C@H]4N(C)C3)(C(C)C)C(=O)N12 [Ergocriptine-S]		0.4	Ki ([1]; read-out: D4Ki): 55 nM
NC1CCc2cc(O)c(O)cc2C1 (racemic) [ADTN-(±)]		1.7	Ki [4]: 33.7 nM
CCc1cc(Cl)c(OC)c(C(=O)NC[C@@H]2CCCN2CC)c1O [Eticlopnde]			[formula] (ratio D2Ki to D4Ki) [2]: 0.17; Ki [1]: 0.52 nM
